pIC50: −log10 of the molar value. Marks after values point to notes of the source that are not given here. Strand notation (5' to 3'): a small letter for the sugar, then the base; units joined by * are phosphorothioate-linked, units joined directly phosphodiester-linked; [ ] holds rarer units or linkages, { } end groups; capitals alone tell only the bases. k = constrained ethyl (cEt); [5mC] = 5-methylcytosine; d = 2'-deoxy (DNA)
Experiments:
Yap1 mRNA [1] = assay: Antisense inhibition of human Yap1 in A-431 cells by cEt gapmers, single dose (Example 2, RTS4814); assay type: cell-based
Outline: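 Read-out is Yap1 mRNA as percent of untreated cells, by real-time RT-PCR (probe set RTS4814) normalized to total RNA via RIBOGREEN. Cells were A-431 dosed with 2,000 nM gapmer without transfection for approximately 48 hours.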

Yap1 mRNA [2] = assay: Dose-dependent inhibition of human Yap1 in A-431 cells (Example 8, 10,000 cells per well, RTS4814); assay type: cell-based; settings: free uptake, approximately 48 hours, RTS4814; for Yap1 mRNA, % UTC: A-431 cells, 10,000 cells per well; for pIC50: A-431 cells, linear regression on log/linear plot
Outline: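 Yap1 mRNA, normalized to RIBOGREEN total RNA and expressed as % untreated control, was read with RTS4814 about 48 h after free-uptake oligonucleotide treatment of A-431 cells at 10,000 cells/well. IC50 derived by linear regression of log/linear data.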

[3] = Table 32, Yap1 mRNA, percent of untreated control, 3-10-3 cEt gapmers targeting SEQ ID NO.: 1, and 2
[4] = Yap1 mRNA as percent of untreated control, A-431 cells, 3-10-3 cEt gapmers targeting SEQ ID NO.: 1, and 2, Table 30
[5] = Table 33, Yap1 mRNA, percent of untreated control, 3-10-3 cEt gapmers targeting SEQ ID NO.: 1, and 2
[6] = Table 6, A-431 cells, 5,000 cells per well, free uptake, 2,000 nM modified oligonucleotide, approx. 48 hours, RTS4814, normalized to RIBOGREEN, Yap1 mRNA relative to untreated control cells
[7] = Table 22, Yap1 mRNA as percent of untreated control, 3-10-3 cEt gapmers, single dose
[8] = Table 21, Yap1 mRNA, percent of untreated control, 3-10-3 cEt gapmers targeting SEQ ID NO.: 1 and 2
[9] = A-431 cells, 5,000 cells per well, free uptake, 2,000 nM modified oligonucleotide, approx. 48 hours, RTS4814, normalized to RIBOGREEN, Table 4, asterisk (*) = targets amplicon region of primer probe set

Substance	Yap1 mRNA, % UTC (Yap1 mRNA [2]; 31.3 nM) [% UTC]	Yap1 mRNA, % UTC (Yap1 mRNA [2]; 125.0 nM) [% UTC]	Yap1 mRNA, % UTC (Yap1 mRNA [2]; 500.0 nM) [% UTC]	Yap1 mRNA, % UTC (Yap1 mRNA [2]; 2000.00 nM) [% UTC]	pIC50 (Yap1 mRNA [2])	further results
1076466 (kA*kT*kT*dT*dA*dG*dA*dG*d[5mC]*dT*dT*dA*dA*kG*kG*kA; antisense) [compound 1076466]	43	18	8	6	> 7.70	YAP1 (% UTC) (Yap1 mRNA [1]; [3]): 5 % UTC
1076530 (kA*kG*kT*dA*dT*dA*dA*dA*dG*d[5mC]*dA*dG*dG*kG*k[5mC]*kA; antisense) [compound 1076530]	53	26	11	7	> 7.70	YAP1 (% UTC) (Yap1 mRNA [1]; [3]): 5 % UTC
1074576 (DNA kA*kT*kG*d[5mC]*dA*d[5mC]*dA*dT*dT*dA*dT*dG*dA*kA*k[5mC]*k[5mC]) [compound 1074576]	69	41	14	9	7.00	YAP1 (% UTC) (Yap1 mRNA [1]; [4]): 7 % UTC
1074450 (kA*k[5mC]*kT*dA*dA*dT*dG*dA*dT*dA*dG*d[5mC]*dA*k[5mC]*kT*kA; antisense) [compound 1074450]	54	22	7	5	> 7.70	YAP1 (% UTC) (Yap1 mRNA [1]; [3]): 5 % UTC
1076370 (antisense kG*kA*kT*dT*dA*dT*dT*d[5mC]*dG*dG*dT*dA*dT*kT*kT*kT) [compound 1076370]	46	12	4	2	> 7.70	YAP1 (% UTC) (Yap1 mRNA [1]; [3]): 2 % UTC
1075088 (kA*kT*kT*dT*dA*dT*dA*dG*dT*d[5mC]*dA*dG*dG*kT*kT*k[5mC]; antisense) [compound 1075088]	37	9	4	2	> 7.70	YAP1 (% UTC) (Yap1 mRNA [1]; [4]): 2 % UTC
1075824 (kG*kT*kA*dT*dT*dA*dG*dA*dG*dG*dT*dT*d[5mC]*k[5mC]*kA*kG; antisense) [compound 1075824]	33	10	5	3	> 7.70	YAP1 (% UTC) (Yap1 mRNA [1]; [4]): 3 % UTC
1074801 (kA*k[5mC]*kA*dA*dA*dT*dA*dG*dT*dG*d[5mC]*dT*dT*kT*kG*kG; antisense) [compound 1074801]	76	41	19	12	7.00	YAP1 (% UTC) (Yap1 mRNA [1]; Yap1 mRNA as percent of untreated control, A-431 cells, 3-10-3 cEt gapmers targeting SEQ ID NO.: 1, and 2, Table 31): 8 % UTC
1075699 (kG*kA*kT*dT*dT*dA*dT*dA*d[5mC]*dT*d[5mC]*dA*dG*kG*kT*kT; antisense) [compound 1075699]	26	6	3	2	> 7.70	YAP1 (% UTC) (Yap1 mRNA [1]; [5]): 4 % UTC
1074579 (DNA k[5mC]*k[5mC]*kA*d[5mC]*dT*dA*dT*dA*dA*dA*dG*d[5mC]*dT*kT*kA*kT) [compound 1074579]	54	22	8	5	> 7.70	YAP1 (% UTC) (Yap1 mRNA [1]; [5]): 6 % UTC
1074418 (kT*kT*k[5mC]*dT*dT*dT*dA*dG*dA*dG*d[5mC]*d[5mC]*dA*kA*k[5mC]*kT; antisense) [compound 1074418]	55	26	9	4	> 7.70	YAP1 (% UTC) (Yap1 mRNA [1]; [3]): 4 % UTC
716516 (antisense kA*kA*k[5mC]*dT*dT*dT*d[5mC]*d[5mC]*d[5mC]*dA*d[5mC]*d[5mC]*d[5mC]*kT*k[5mC]*k[5mC]) [Compound 716516]						YAP1 (% UTC) (Yap1 mRNA [1]; [6]): 84 % UTC
1075026 (antisense k[5mC]*kT*kT*dA*dA*dA*dA*dG*d[5mC]*d[5mC]*dA*dT*d[5mC]*kT*kA*k[5mC]) [compound 1075026]						YAP1 (% UTC) (Yap1 mRNA [1]; [3]): 55 % UTC
716576 (kT*kG*kT*d[5mC]*dA*dG*dT*dT*dA*dT*d[5mC]*d[5mC]*dT*kA*kT*k[5mC]; antisense) [Compound 716576]						YAP1 (% UTC) (Yap1 mRNA [1]; [6]): 52 % UTC
1074888 (antisense kG*kT*kT*dT*dA*dG*d[5mC]*d[5mC]*dT*dG*dA*dA*dG*k[5mC]*kA*kA) [Compound 1074888]						YAP1 (% UTC) (Yap1 mRNA [1]; [7]): 58 % UTC
1074962 (antisense kA*kG*kG*d[5mC]*dA*dA*dG*d[5mC]*dA*dG*d[5mC]*dT*dA*kA*kA*kT) [compound 1074962]						YAP1 (% UTC) (Yap1 mRNA [1]; [3]): 78 % UTC
1075815 (kG*kT*kA*dT*dA*dA*dA*dG*d[5mC]*dA*dG*dG*dG*k[5mC]*kA*kT; antisense) [Compound 1075815]						YAP1 (% UTC) (Yap1 mRNA [1]; [8]): 36 % UTC

Substance	Yap1 mRNA, % UTC (Yap1 mRNA [2]; 31.3 nM) [% UTC]	Yap1 mRNA, % UTC (Yap1 mRNA [2]; 125.0 nM) [% UTC]	Yap1 mRNA, % UTC (Yap1 mRNA [2]; 500.0 nM) [% UTC]	Yap1 mRNA, % UTC (Yap1 mRNA [2]; 2000.00 nM) [% UTC]	pIC50 (Yap1 mRNA [2])	further results
1074438 (kG*kA*k[5mC]*dA*dT*dG*dA*dA*dG*d[5mC]*dA*dT*d[5mC]*kT*kG*kA; antisense) [Compound 1074438]						YAP1 (% UTC) (Yap1 mRNA [1]; Table 20, Yap1 mRNA, percent of untreated control, 3-10-3 cEt gapmers targeting SEQ ID NO.: 1 and 2): 1* % UTC
716354 (kT*k[5mC]*kG*d[5mC]*dT*d[5mC]*dT*d[5mC]*dA*dG*dG*dG*d[5mC]*k[5mC]*kG*kG; antisense) [Compound 716354]						YAP1 (% UTC) (Yap1 mRNA [1]; [6]): 114 % UTC
716528 (antisense kT*kT*kA*dG*dG*dT*d[5mC]*dT*d[5mC]*d[5mC]*dT*dT*d[5mC]*kA*kG*kG) [Compound 716528]						YAP1 (% UTC) (Yap1 mRNA [1]; [6]): 70 % UTC
716568 (kG*kA*kT*dT*dT*dT*dT*dT*d[5mC]*dT*dG*dA*dG*kT*kT*k[5mC]; antisense) [Compound 716568]						YAP1 (% UTC) (Yap1 mRNA [1]; [9]): 72 % UTC
1074899 (antisense kT*kA*kA*d[5mC]*dT*dT*dT*dT*dG*dG*dG*d[5mC]*dA*kA*kA*kG) [compound 1074899]						YAP1 (% UTC) (Yap1 mRNA [1]; [5]): 52 % UTC
1075571 (antisense k[5mC]*kA*kA*dA*dT*dA*dG*dA*dT*dA*d[5mC]*dT*dA*kA*kG*k[5mC]) [compound 1075571]						YAP1 (% UTC) (Yap1 mRNA [1]; [5]): 54 % UTC
1076168 (k[5mC]*kA*kA*dA*dT*dT*dT*dA*d[5mC]*dA*d[5mC]*d[5mC]*dA*k[5mC]*k[5mC]*kG; antisense) [Compound 1076168]						YAP1 (% UTC) (Yap1 mRNA [1]; [7]): 23 % UTC
716480 (kG*k[5mC]*kA*dA*dG*dT*d[5mC]*dT*dT*dG*dT*dA*dA*kG*kT*kA; antisense) [Compound 716480]						YAP1 (% UTC) (Yap1 mRNA [1]; [6]): 18 % UTC
1075015 (antisense k[5mC]*kA*kG*dA*dA*dT*dA*dA*dG*dT*dA*dT*dG*kA*kT*kT) [Compound 1075015]						YAP1 (% UTC) (Yap1 mRNA [1]; [8]): 55 % UTC
1075719 (k[5mC]*kT*kA*dA*dA*dA*d[5mC]*d[5mC]*dG*dG*d[5mC]*dT*dG*kG*kA*k[5mC]; antisense) [Compound 1075719]						YAP1 (% UTC) (Yap1 mRNA [1]; [8]): 76 % UTC
716466 (kG*kT*kG*dG*dA*dG*d[5mC]*dA*d[5mC]*dT*d[5mC]*d[5mC]*d[5mC]*k[5mC]*kT*kA; antisense) [Compound 716466]						YAP1 (% UTC) (Yap1 mRNA [1]; [9]): 58 % UTC
716517 (antisense kT*kT*k[5mC]*dA*d[5mC]*dA*dA*d[5mC]*d[5mC]*d[5mC]*d[5mC]*d[5mC]*d[5mC]*k[5mC]*k[5mC]*k[5mC]) [Compound 716517]						YAP1 (% UTC) (Yap1 mRNA [1]; [9]): 53 % UTC
1075306 (kT*kA*kA*dA*d[5mC]*dG*dA*dA*dA*d[5mC]*dA*d[5mC]*dG*kG*kG*kT; antisense) [Compound 1075306]						YAP1 (% UTC) (Yap1 mRNA [1]; Table 24, Yap1 mRNA as percent of untreated control, 3-10-3 cEt gapmers targeting SEQ ID NO.: 1, and 2): 30 % UTC
1075845 (kG*kT*kG*dG*dA*dA*dA*dA*dG*dT*dA*dT*dG*kA*kT*k[5mC]; antisense) [Compound 1075845]						YAP1 (% UTC) (Yap1 mRNA [1]; Table 19, A-431 cells, 5,000 cells per well, free uptake, 2,000 nM modified oligonucleotide, approx. 48 hours, RTS4814, normalized to RIBOGREEN, Yap1 mRNA as percent of untreated control): 19 % UTC
1074729 (antisense kA*k[5mC]*kA*d[5mC]*dT*dG*dA*dG*dG*dT*dA*dT*dA*kA*k[5mC]*kT) [Compound 1074729]						YAP1 (% UTC) (Yap1 mRNA [1]; Table 23, Yap1 mRNA as percent of untreated control, 3-10-3 cEt gapmers, single dose): 9 % UTC
716355 (kG*kA*k[5mC]*dG*dG*d[5mC]*dT*dG*d[5mC]*dG*dG*dG*d[5mC]*k[5mC]*kG*kG; antisense) [Compound 716355]						YAP1 (% UTC) (Yap1 mRNA [1]; [9]): 96 % UTC
1074663 (antisense k[5mC]*kA*kT*dT*d[5mC]*dT*dA*dG*dG*dT*dA*dG*dA*kA*kT*kT) [Compound 1074663]						YAP1 (% UTC) (Yap1 mRNA [1]; [8]): 79 % UTC

From patent US11214803B2, “Modulators of YAP1 expression” (Ionis Pharmaceuticals, Inc., priority 2019, dated 2022)
